# According to the supplement of paper PMC10307832:
# Key:
# Experiment in all cases: relative viability (nuclei count vs DMSO), 5 days (fraction); higher = more cells survive
# [1] = compound: CN1CCN(CC1)C2=CC(=C(C=C2)NC3=NC(=C(S3)C(=O)C4=C(C=CC=C4Cl)Cl)N)OC [XMD14-99] + CC(=O)c1c(C)c2cnc(Nc3ccc(N4CCNCC4)cn3)nc2n(C2CCCC2)c1=O [Palbociclib] (partner 0.5 µM)
# How it was run: (§1)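 One day after seeding in 1536-well plates, lung cancer cell lines were dosed by pin tool. Dosing was either single-drug or a fixed anchor-drug dose plus five library-drug doses (not always all listed) in √10 steps. After 5 days, nuclei were stained in one fix-and-stain step and counted on 4× images, and relative viability is the nuclei count of treated wells over that of vehicle wells, given as the median of duplicate plates.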
# [2] = compound: CN1CCN(CC1)C2=CC(=C(C=C2)NC3=NC(=C(S3)C(=O)C4=C(C=CC=C4Cl)Cl)N)OC [XMD14-99] + Cc1nc(NC(=O)N2CCC[C@H]2C(N)=O)sc1-c1ccnc(C(C)(C)C(F)(F)F)c1 [Alpelisib] (partner 2 µM)
# How it was run: as §1
# [3] = compound: N[C@@H]1CCCN(c2c(/C=C3\SC(=O)NC3=O)cccc2-c2ccccc2)C1 [AZD1208] + CS(=O)(=O)N1CCN(Cc2cc3nc(-c4cccc5[nH]ncc45)nc(N4CCOCC4)c3s2)CC1 [Pictilisib] (partner 1 µM)
# How it was run: as §1
# [4] = compound: N[C@@H]1CCCN(c2c(/C=C3\SC(=O)NC3=O)cccc2-c2ccccc2)C1 [AZD1208] + Nc1nc2[nH]cc(CCc3ccc(C(=O)N[C@@H](CCC(=O)O)C(=O)O)cc3)c2c(=O)[nH]1 [Pemetrexed] (partner 0.2 µM)
# How it was run: as §1
Cell Line,relative viability ([1]; first compound 0.08 µM),relative viability ([1]; first compound 0.8 µM),relative viability ([1]; first compound 2.53 µM),relative viability ([1]; first compound 8 µM),relative viability ([2]; first compound 0.08 µM),relative viability ([2]; first compound 0.8 µM),relative viability ([2]; first compound 2.53 µM),relative viability ([2]; first compound 8 µM),relative viability ([3]; first compound 0.08 µM),relative viability ([3]; first compound 0.253 µM),relative viability ([3]; first compound 0.8 µM),relative viability ([3]; first compound 2.53 µM),relative viability ([3]; first compound 8 µM),relative viability ([4]; first compound 0.08 µM),relative viability ([4]; first compound 0.253 µM),relative viability ([4]; first compound 0.8 µM),relative viability ([4]; first compound 2.53 µM),relative viability ([4]; first compound 8 µM)
NCI-H2085,0.453,0.447,0.462,0.41,0.92,0.866,0.889,0.728,0.418,0.459,0.36,0.43,0.564,0.912,0.971,0.936,0.817,0.893
SK-LU-1,0.418,0.42,0.356,0.266,0.893,0.96,0.996,0.598,0.459,0.607,0.532,0.567,0.431,0.956,1.02,0.988,0.944,0.869
A-427,0.515,0.554,0.488,0.452,1.09,1.08,0.954,0.9,0.673,0.664,0.597,0.74,0.533,0.971,1.05,0.847,1.03,0.911
NCI-H460,0.156,0.21,0.164,0.12,0.36,0.419,0.431,0.197,0.341,0.322,0.289,0.308,0.37,0.065,0.0614,0.0662,0.0615,0.055
NCI-H1792,0.64,0.697,0.631,0.598,0.688,0.734,0.627,0.474,0.255,0.272,0.258,0.218,0.199,0.912,1.11,,0.698,0.556
SW 1573,0.342,0.44,0.421,0.36,0.8,0.737,0.697,0.651,0.411,0.418,0.421,0.347,0.344,0.782,0.748,0.717,0.646,0.749
RERF-LC-KJ,1.01,1.04,0.952,0.9,0.718,0.917,0.75,0.588,0.434,0.526,0.464,0.438,0.368,0.515,0.441,0.505,0.476,0.491
EMC-BAC-2,0.523,0.516,0.509,0.481,0.728,0.767,0.74,0.619,0.537,0.528,0.463,0.474,0.47,0.462,0.474,0.511,0.524,0.54
LK-2,0.572,0.804,0.655,0.611,1.01,1.11,0.855,1.05,0.373,0.349,0.29,0.383,0.266,0.344,0.25,,0.219,0.163
NCI-H2228,0.749,0.56,0.774,0.278,0.927,0.528,0.492,0.188,0.207,0.328,0.381,,0.285,0.328,0.368,0.357,0.371,0.344
NCI-H322M,0.449,0.523,0.472,0.514,0.889,0.709,0.64,0.767,0.494,0.466,0.463,0.474,0.547,0.565,0.654,,0.622,0.608
NCI-H1975,0.597,0.614,0.618,0.448,0.715,0.605,0.553,0.378,0.285,0.252,0.242,0.28,0.238,0.288,0.295,0.282,0.286,0.327
NCI-H1944,0.32,0.36,0.328,0.28,0.902,0.867,0.805,0.755,0.33,0.345,0.306,0.298,0.277,0.593,0.652,0.591,0.579,0.535
LU99A,0.382,0.415,0.396,0.328,0.511,0.547,0.46,0.415,0.304,0.294,0.289,0.35,0.236,0.198,0.237,0.233,0.198,0.205
NCI-H2405,0.512,0.578,0.557,0.503,0.792,0.895,0.809,0.416,0.394,0.397,0.333,0.373,0.385,1.01,1,1.02,1.02,0.95
NCI-H2023,0.342,0.409,0.374,0.264,0.614,0.527,0.646,0.534,0.193,0.223,0.203,0.183,0.209,0.263,0.207,0.241,0.243,0.229
HCC-15,0.733,0.765,0.733,0.629,0.906,0.883,0.827,0.657,0.611,0.679,0.524,0.548,0.515,0.215,0.214,0.225,0.237,0.213
HCC-44,1.03,0.969,1,1.01,0.825,0.788,0.821,0.797,0.617,0.463,0.372,0.46,0.458,0.636,0.592,0.62,0.688,0.639

Cell Line,relative viability ([1]; first compound 0.08 µM),relative viability ([1]; first compound 0.8 µM),relative viability ([1]; first compound 2.53 µM),relative viability ([1]; first compound 8 µM),relative viability ([2]; first compound 0.08 µM),relative viability ([2]; first compound 0.8 µM),relative viability ([2]; first compound 2.53 µM),relative viability ([2]; first compound 8 µM),relative viability ([3]; first compound 0.08 µM),relative viability ([3]; first compound 0.253 µM),relative viability ([3]; first compound 0.8 µM),relative viability ([3]; first compound 2.53 µM),relative viability ([3]; first compound 8 µM),relative viability ([4]; first compound 0.08 µM),relative viability ([4]; first compound 0.253 µM),relative viability ([4]; first compound 0.8 µM),relative viability ([4]; first compound 2.53 µM),relative viability ([4]; first compound 8 µM)
COR-L23,0.266,0.295,0.299,0.18,0.768,0.749,0.515,0.301,0.738,0.87,0.725,0.693,0.75,0.188,0.193,0.195,0.206,0.194
HCC-78,0.487,0.54,0.557,0.445,0.371,0.308,0.331,0.291,0.205,0.206,0.198,0.195,0.205,0.91,0.908,0.897,0.87,0.912
NCI-H838,0.221,0.217,0.226,0.213,1,0.928,0.904,0.604,0.374,0.427,0.343,0.378,0.366,0.239,0.26,0.243,0.26,0.228
NCI-H2126,0.326,0.337,0.37,0.362,0.745,0.75,0.723,0.647,0.437,0.476,0.436,0.424,0.441,0.649,0.734,0.652,0.634,0.614
BEN,0.489,0.468,0.478,0.476,0.94,0.936,0.854,0.801,0.525,0.447,0.414,0.387,0.373,0.877,0.525,0.568,0.612,0.558
LCLC-103H,0.487,0.491,0.421,0.481,0.867,1.04,0.959,0.863,0.568,0.614,0.485,0.455,0.448,0.453,0.46,0.51,0.43,0.477
EKVX,0.358,0.403,0.377,0.361,0.767,0.985,0.876,0.696,0.395,0.421,0.349,0.375,0.365,0.411,0.441,0.404,0.425,0.404
LXF-289,0.625,0.571,0.55,0.575,1,0.971,1.02,0.835,0.706,0.724,0.73,0.699,0.724,0.887,1.01,0.924,0.634,1.02
NCI-H661,0.406,0.452,0.386,0.358,0.798,0.564,0.594,0.356,0.417,0.391,0.34,0.342,0.355,0.956,0.9,0.94,0.942,0.955
NCI-H2087,0.198,0.279,0.236,0.246,1.03,0.801,0.827,0.549,0.665,0.842,0.654,0.561,0.732,0.664,0.713,0.475,0.649,0.627
NCI-H1793,0.286,0.316,0.314,0.284,0.77,0.641,0.666,0.476,0.362,0.212,0.257,0.385,0.276,0.828,0.954,0.716,0.935,0.718
LC-2-ad,0.525,0.446,0.466,0.487,0.855,0.863,0.839,0.633,0.397,0.446,0.405,0.357,0.417,0.246,0.278,0.269,0.246,0.272
COR-L 105,0.402,0.418,0.433,0.344,0.851,0.849,0.823,0.806,0.369,0.3,0.353,0.366,0.451,1.1,0.982,1.01,1.2,1.08
NCI-H1355,0.393,0.419,0.383,0.331,0.928,0.893,0.68,0.657,0.419,0.39,0.35,0.349,0.306,1.1,0.944,0.934,1.04,1.04
H3255,0.317,0.303,0.296,0.295,0.605,0.636,0.629,0.506,0.402,0.44,0.408,0.364,0.451,0.591,0.577,0.597,0.524,0.598
NCI-H2009,0.358,0.319,0.26,0.236,1.14,1.13,1.13,0.968,0.725,0.811,0.75,0.553,0.714,1.01,1.03,0.917,1.11,1.06
NCI-H1734,0.355,0.338,0.379,0.355,0.659,0.704,0.738,0.584,0.393,0.373,0.347,0.343,0.293,0.404,0.409,0.442,0.427,0.435
